Source: PubChem BioAssay AID328 (DTP/NCI, 2004)
Where “and” joins values, the source holds several entries; their conditions need not be identical. Equal values may be shown once. Inconclusive results and toxic doses are left out.

Test system: BDF1 mice, P388 leukemia ip, median survival T/C
Test: NCI In Vivo Anticancer Drug Screen. Data for tumor model P388 Leukemia (intraperitoneal) in B6D2F1 (BDF1) mice
Conditions: endpoint: median survival time, higher = longer survival
In short: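 Read-out is survival of treated animals expressed relative to the vehicle group, as a T/C ratio.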

[1] = dose: 25.0 mg/kg/injection, schedule: Q04DX003 (ip), vehicle: saline
[2] = dose: 25.0 mg/kg/injection, schedule: Q01DX009 (ip), vehicle: saline with Tween-80
[3] = dose: 100.0 mg/kg/injection, schedule: Q04DX003 (ip), vehicle: saline with Tween-80
[4] = dose: 200.0 mg/kg/injection, schedule: Q04DX003 (ip), vehicle: saline with Tween-80
[5] = dose: 400.0 mg/kg/injection, schedule: Q04DX003 (ip), vehicle: saline with Tween-80
[6] = dose: 50.0 mg/kg/injection, schedule: Q01DX009 (ip), vehicle: saline with Tween-80
[7] = dose: 100.0 mg/kg/injection, schedule: Q01DX009 (ip), vehicle: saline with Tween-80
[8] = dose: 200.0 mg/kg/injection, schedule: Q01DX009 (ip), vehicle: saline with Tween-80
[9] = dose: 100.0 mg/kg/injection, schedule: Q01DX001 (ip), vehicle: Klucel (hydroxypropylcellulose) (HPC)
[10] = dose: 200.0 mg/kg/injection, schedule: Q01DX001 (ip), vehicle: Klucel (hydroxypropylcellulose) (HPC)
[11] = dose: 400.0 mg/kg/injection, schedule: Q01DX001 (ip), vehicle: Klucel (hydroxypropylcellulose) (HPC)
[12] = dose: 1.56 mg/kg/injection, schedule: Q01DX009 (ip), vehicle: water
[13] = dose: 3.12 mg/kg/injection, schedule: Q01DX009 (ip), vehicle: water
[14] = dose: 6.25 mg/kg/injection, schedule: Q01DX009 (ip), vehicle: water
[15] = dose: 200.0 mg/kg/injection, schedule: Q01DX009 (ip), vehicle: Klucel (hydroxypropylcellulose) (HPC)

## O=C(O)C(O)C(O)C(=O)O.O=C(O)C(O)C(O)C(=O)O.[O]=[V].[O]=[V] (stereo not given)
dose: 3.13 mg/kg/injection, schedule: Q01DX009 (ip), vehicle: saline
  T/C: 110 % of control
dose: 6.25 mg/kg/injection, schedule: Q01DX009 (ip), vehicle: saline
  T/C: 90 % of control and 100 % of control
dose: 6.25 mg/kg/injection, schedule: Q04DX003 (ip), vehicle: saline
  T/C: 100 % of control
dose: 12.5 mg/kg/injection, schedule: Q01DX009 (ip), vehicle: saline
  T/C: 95 % of control and 100 % of control
dose: 12.5 mg/kg/injection, schedule: Q04DX003 (ip), vehicle: saline
  T/C: 95 % of control and 100 % of control
dose: 25.0 mg/kg/injection, schedule: Q01DX009 (ip), vehicle: saline
  T/C: 90 % of control and 88 % of control
[1]
  T/C: 100 % of control

## COc1cc2c(cc1OC)C1C(=CCC3c4cc(OC)c(OC)cc4CC[N+]31C)C=C2 (stereo not given)
dose: 6.25 mg/kg/injection, schedule: Q01DX009 (ip), vehicle: saline with Tween-80
  T/C: 95 % of control
dose: 12.5 mg/kg/injection, schedule: Q01DX009 (ip), vehicle: saline with Tween-80
  T/C: 104 % of control
[2]
  T/C: 116 % of control

## CN(c1ccccc1)c1cc2c(cc1[N+](=O)[O-])no[n+]2[O-]
dose: 15.0 mg/kg/injection, schedule: Q01DX009 (ip), vehicle: saline with Tween-80
  T/C: 118 % of control
dose: 60.0 mg/kg/injection, schedule: Q01DX009 (ip), vehicle: saline with Tween-80
  T/C: 113 % of control

## O=C(/C=C/c1ccc(O)cc1)c1ccccc1
[3]
  T/C: 118 % of control
[4]
  T/C: 168 % of control
[5]
  T/C: 113 % of control

## O=C1C=C2SCCN2C(=O)C1
[2]
  T/C: 99 % of control
[6]
  T/C: 99 % of control and 109 % of control
[7]
  T/C: 97 % of control and 124 % of control
[8]
  T/C: 105 % of control and 114 % of control

## CN(C)CC(=O)Nc1nc(-c2ccc(Cl)cc2)cs1
dose: 50.0 mg/kg/injection, schedule: Q01DX005 (ip), vehicle: saline with Tween-80
  T/C: 101 % of control
dose: 100.0 mg/kg/injection, schedule: Q01DX005 (ip), vehicle: saline with Tween-80
  T/C: 92 % of control
dose: 200.0 mg/kg/injection, schedule: Q01DX005 (ip), vehicle: saline with Tween-80
  T/C: 99 % of control

## Cc1c(CO)[nH]c(=S)[nH]c1=O
[9]
  T/C: 90 % of control
[10]
  T/C: 104 % of control
[11]
  T/C: 95 % of control

## O=C(CSCC(=O)c1ccc(Br)cc1)c1ccc(Br)cc1
[9]
  T/C: 100 % of control
[10]
  T/C: 100 % of control
[11]
  T/C: 100 % of control

## CC[CH2][Sn]([Cl])([Cl])[CH2]CC
dose: 0.1 mg/kg/injection, schedule: Q01DX009 (ip), vehicle: Klucel (hydroxypropylcellulose) (HPC)
  T/C: 100 % of control
dose: 0.2 mg/kg/injection, schedule: Q01DX009 (ip), vehicle: Klucel (hydroxypropylcellulose) (HPC)
  T/C: 113 % of control
dose: 0.25 mg/kg/injection, schedule: Q01DX009 (ip), vehicle: Klucel (hydroxypropylcellulose) (HPC)
  T/C: 90 % of control
dose: 0.4 mg/kg/injection, schedule: Q01DX009 (ip), vehicle: Klucel (hydroxypropylcellulose) (HPC)
  T/C: 113 % of control
dose: 0.5 mg/kg/injection, schedule: Q01DX009 (ip), vehicle: Klucel (hydroxypropylcellulose) (HPC)
  T/C: 100 % of control
dose: 1.0 mg/kg/injection, schedule: Q01DX009 (ip), vehicle: Klucel (hydroxypropylcellulose) (HPC)
  T/C: 113 % of control
dose: 2.0 mg/kg/injection, schedule: Q01DX009 (ip), vehicle: Klucel (hydroxypropylcellulose) (HPC)
  T/C: 122 % of control

## NC(N)=Nc1ccc(C(=O)Oc2ccc([N+](=O)[O-])cc2CN2CCCCC2)cc1
dose: 0.78 mg/kg/injection, schedule: Q01DX009 (ip), vehicle: water
  T/C: 101 % of control
dose: 0.78 mg/kg/injection, schedule: Q04DX003 (ip), vehicle: water
  T/C: 100 % of control
[12]
  T/C: 93 % of control
dose: 1.56 mg/kg/injection, schedule: Q04DX003 (ip), vehicle: water
  T/C: 105 % of control
[13]
  T/C: 100 % of control
dose: 3.12 mg/kg/injection, schedule: Q04DX003 (ip), vehicle: water
  T/C: 113 % of control
[14]
  T/C: 104 % of control
dose: 6.25 mg/kg/injection, schedule: Q04DX003 (ip), vehicle: water
  T/C: 104 % of control
dose: 12.5 mg/kg/injection, schedule: Q04DX003 (ip), vehicle: water
  T/C: 95 % of control

## CO[C@H](C)[C@@](O)(C(=O)OCC1=CCN2CCC[C@@H]12)C(C)C
dose: 20.0 mg/kg/injection, schedule: Q01DX010 (ip), vehicle: carboxymethylcellulose (CMC)
  T/C: 95 % of control
dose: 40.0 mg/kg/injection, schedule: Q01DX010 (ip), vehicle: carboxymethylcellulose (CMC)
  T/C: 115 % of control
dose: 80.0 mg/kg/injection, schedule: Q01DX010 (ip), vehicle: carboxymethylcellulose (CMC)
  T/C: 110 % of control

## Cc1cc(=O)oc2c(N)nccc12
dose: 12.5 mg/kg/injection, schedule: Q01DX005 (ip), vehicle: saline with Tween-80
  T/C: 121 % of control

## Nc1ccccc1CCc1ccccc1N
[7]
  T/C: 104 % of control
[3]
  T/C: 95 % of control
[8]
  T/C: 100 % of control
[4]
  T/C: 95 % of control
dose: 400.0 mg/kg/injection, schedule: Q01DX009 (ip), vehicle: saline with Tween-80
  T/C: 100 % of control
[5]
  T/C: 108 % of control

## Cc1ccc(S(=O)(=O)OCC2C3C=CC(C3)C2COS(=O)(=O)c2ccc(C)cc2)cc1 (stereo not given)
dose: 100.0 mg/kg/injection, schedule: Q01DX009 (ip), vehicle: Klucel (hydroxypropylcellulose) (HPC)
  T/C: 86 % of control
dose: 100.0 mg/kg/injection, schedule: Q04DX003 (ip), vehicle: Klucel (hydroxypropylcellulose) (HPC)
  T/C: 86 % of control
[15]
  T/C: 104 % of control
dose: 200.0 mg/kg/injection, schedule: Q04DX003 (ip), vehicle: Klucel (hydroxypropylcellulose) (HPC)
  T/C: 90 % of control
dose: 400.0 mg/kg/injection, schedule: Q01DX009 (ip), vehicle: Klucel (hydroxypropylcellulose) (HPC)
  T/C: 100 % of control
dose: 400.0 mg/kg/injection, schedule: Q04DX003 (ip), vehicle: Klucel (hydroxypropylcellulose) (HPC)
  T/C: 90 % of control

## c1ccc2c(c1)C1=NCCN1c1ccccc1-2
dose: 5.3 mg/kg/injection, schedule: Q01DX009 (ip), vehicle: Klucel (hydroxypropylcellulose) (HPC)
  T/C: 86 % of control
dose: 8.0 mg/kg/injection, schedule: Q01DX009 (ip), vehicle: Klucel (hydroxypropylcellulose) (HPC)
  T/C: 86 % of control
dose: 10.0 mg/kg/injection, schedule: Q01DX009 (ip), vehicle: Klucel (hydroxypropylcellulose) (HPC)
  T/C: 115 % of control
dose: 12.0 mg/kg/injection, schedule: Q01DX009 (ip), vehicle: Klucel (hydroxypropylcellulose) (HPC)
  T/C: 95 % of control
dose: 17.7 mg/kg/injection, schedule: Q01DX009 (ip), vehicle: Klucel (hydroxypropylcellulose) (HPC)
  T/C: 108 % of control
dose: 20.0 mg/kg/injection, schedule: Q01DX009 (ip), vehicle: Klucel (hydroxypropylcellulose) (HPC)
  T/C: 110 % of control
dose: 40.0 mg/kg/injection, schedule: Q01DX009 (ip), vehicle: Klucel (hydroxypropylcellulose) (HPC)
  T/C: 150 % of control

## CCN(CC)Cc1c(C)[nH]c2ccc(N(C)C)cc2c1=O
[12]
  T/C: 86 % of control and 110 % of control
[13]
  T/C: 89 % of control and 100 % of control
[14]
  T/C: 89 % of control
dose: 12.5 mg/kg/injection, schedule: Q01DX009 (ip), vehicle: Klucel (hydroxypropylcellulose) (HPC)
  T/C: 99 % of control
dose: 12.5 mg/kg/injection, schedule: Q01DX009 (ip), vehicle: water
  T/C: 120 % of control
dose: 25.0 mg/kg/injection, schedule: Q01DX009 (ip), vehicle: Klucel (hydroxypropylcellulose) (HPC)
  T/C: 108 % of control
[1]
  T/C: 111 % of control
dose: 50.0 mg/kg/injection, schedule: Q01DX009 (ip), vehicle: Klucel (hydroxypropylcellulose) (HPC)
  T/C: 99 % of control
dose: 50.0 mg/kg/injection, schedule: Q04DX003 (ip), vehicle: saline
  T/C: 112 % of control
dose: 100.0 mg/kg/injection, schedule: Q04DX003 (ip), vehicle: saline
  T/C: 104 % of control
[15]
  T/C: 106 % of control

## CC(=O)c1ccc(C(=O)CC(O)(C(F)(F)F)C(F)(F)F)cc1
dose: 50.0 mg/kg/injection, schedule: Q01DX009 (ip), vehicle: other
  T/C: 104 % of control
dose: 50.0 mg/kg/injection, schedule: Q04DX003 (ip), vehicle: other
  T/C: 90 % of control
dose: 100.0 mg/kg/injection, schedule: Q01DX009 (ip), vehicle: other
  T/C: 104 % of control
dose: 100.0 mg/kg/injection, schedule: Q04DX003 (ip), vehicle: other
  T/C: 95 % of control

## c1ccc2c(c1)ccc1nc3c4ccccc4c4ccccc4c3nc12
[6]
  T/C: 114 % of control
[7]
  T/C: 113 % of control
[8]
  T/C: 105 % of control
